Reference: US4218477A, “Primary aminoacylanilides, methods of making the same and use as antiarrhythmic drugs” (priority 1976, dated 1980)
Where two headings read alike, the source gives them in different places.

Experiments:
frog sciatic nerve = assay: Local anesthetic effect in vitro on the frog sciatic nerve; details: 20 mM, exposure for 96 min
ventricular arrhythmias [1] = assay: animal or person; details: for minimal effective dose: Canis lupus familiaris
Experimental: Tests on dogs with the compound 2-amino-2',6'-propionoxylidide were conducted according to a modification of the method described by A. S. Harris in "Delayed Development of Ventricular Ectopic Rhythms Following Experimental Coronary Occlusions", Circ. Vol. 1, pp. 1318-1328 (1950). In this method the dogs were anesthetized, the heart was exposed, and the anterior descending branch of the left coronary artery was ligated in two stages. The thorax was closed and the dog was allowed to recover from the anesthesia. […] B. B. Clark and J. R. Cummings, "Arrhythmias Following Experimental Coronary Occlusion and Their Response to Drugs", Annals New York Academy of Sciences, Vol. 65, pp. 543-551 (1956). […] The electrocardiographic, cardiovascular and other drug effects were monitored.
The dosage schedule was: 1st hr.: 15 mg/kg/hr; 2nd hr.: 30 mg/kg/hr; 3rd hr.: 60 mg/kg/hr. Infusions were stopped at the first sign of toxicity other than emesis.
The compound 3-amino-2',6'-butyroxylidide was also tested on dogs, according to a modification of the method of Harris as previously described. As in the previously described tests, unanesthetized dogs were supported in canvas slings and were treated either intravenously or orally with doses of 3-amino-2',6'-butyroxylidide. The electrocardiographic, cardiovascular and other drug effects were monitored.

[2] = tested on: chloroform-induced arrhythmias; assay: animal or person; details: Mus musculus
[3] = tested on: chloroform induced fibrillation; assay: Protection against chloroform induced fibrillation in mice, subcutaneous, potency relative to lidocaine (Table IV); assay type: in vivo; details: s.c., 20 min, statistical mean (confidence limits)
Experimental: (§1) The experiments on mice were performed according to a modification of the method described by J. W. Lawson, "Antiarrhythmic activity of some isoquinoline derivatives determined by a rapid screening procedure in the mouse", J. Pharm. Exp. Therap. Vol. 160, pp. 22-31 (1968). This method is based upon the observation that when an unanesthetized, untreated mouse is exposed to chloroform vapor its respiration soon ceases and at that time both electrocardiographic and visual inspection reveal that the cardiac ventricles are fibrillating. If the mouse is treated appropriately with known antiarrhythmic agents prior to exposure to chloroform, the respiratory failure is not accompanied by ventricular fibrillation.
The procedure used was a modification of the method previously described. The modification involved using a standard time of 20 minutes for each test run and four different doses of the same drug. Route of administration was subcutaneous.

ventricular arrhythmias [4] = assay type: in vivo, dogs; details: for Complete Clearing, Duration: return of 50% of suppressed abnormal beats; for Complete Clearing, Onset: abnormal ventricular beats less than 5% of total beats
Experimental: Vol. 1, pp. 1318-1328 (1950). […] The electrocardiographic, cardiovascular and other drug effects were monitored.
Table II summarizes the results of oral administration:
Dogs #215 and #220 given 50 mg/kg dose at 0 mins and 100 mg/kg dose at 24
The electrocardiographic, cardiovascular and other drug effects were monitored.

mice [5] = assay: Ataxia just before CHCl3 challenge in mice, oral (Table I); assay type: in vivo, female Swiss albino mice (HAM/ICR)
Experimental: as §1

mice [6] = details: mouse, in vivo, po, 1440 min
cardiac arrhythmias = assay: Antiarrhythmic effect in mice, oral (summary statement); assay type: in vivo
Experimental: as §1

ventricular fibrillation = assay: Protection against chloroform induced ventricular fibrillation in mice, oral (Table I); assay type: in vivo, female Swiss albino mice (HAM/ICR)
Experimental: as §1

[7] = Acute oral toxicity in mice (24 Hr. mortality); details: mouse, in vivo, po
[8] = oral, cumulative dose 100 mg/kg as HCl
[9] = oral, cumulative dose 300 mg/kg as HCl

Cc1cccc(C)c1NC(=O)C(C)N (racemic) [2-amino-2',6'-propionoxylidide]
block of the action potential of the nerve (frog sciatic nerve): does not block the action potential at all | minimal effective dose (ventricular arrhythmias [1]; iv, read-out: Antiarrhythmic doses (cumul.)): 75 mg/kg | minimal effective dose (ventricular arrhythmias [1]; iv, read-out: cumulative dose providing antiarrhythmic effects): 75 mg/kg | adverse reactions (ventricular arrhythmias [1]; dog, in vivo, iv): unaccompanied by any discernible adverse reactions | Number of dogs showing antiarrhythmic effect (ventricular arrhythmias [1]; i.v. infusion 15, 30, 60 mg/kg/hr, dogs tested: lidocaine 2, test compound 1, abnormal beats less than 5% of total): 1 | Toxic doses (cumul.) (ventricular arrhythmias [1]; i.v. infusion, stopped at first sign of toxicity other than emesis, one value per dog): 81 mg/kg | Duration of Antiarrhythmic effect (ventricular arrhythmias [1]; i.v. infusion, return of 50% of suppressed abnormal ventricular beats, one value per dog): 71 min | suppression of the ventricular arrhythmias (ventricular arrhythmias [1]; intravenous doses, dogs): distinct suppression of the ventricular arrhythmias | ED50 [2]: 172 mg/kg | Relative Potency (ED50 test compound/ED50 lidocaine) [3]: 0.33 (0.20 - 0.54) | adverse reactions (ventricular arrhythmias [4]; dog, in vivo, po): unaccompanied by any discernible adverse reactions | Overt Toxicity: Convulsions, Onset (ventricular arrhythmias [4]; dog, in vivo, po, 50 mg/kg): None | Overt Toxicity: Emesis (ventricular arrhythmias [4]; dog, in vivo, po, 50 mg/kg): None | Overt Toxicity: Nystagmus (ventricular arrhythmias [4]; dog, in vivo, po, 50 mg/kg): None | Overt Toxicity: Other (ventricular arrhythmias [4]; dog, in vivo, po, 50 mg/kg): None | Overt Toxicity: Tremors (ventricular arrhythmias [4]; dog, in vivo, po, 50 mg/kg): None | Overt Toxicity: Convulsions, Onset (ventricular arrhythmias [4]; dog, in vivo, po, 100 mg/kg): None | Overt Toxicity: Emesis (ventricular arrhythmias [4]; dog, in vivo, po, 100 mg/kg): None | Overt Toxicity: Nystagmus (ventricular arrhythmias [4]; dog, in vivo, po, 100 mg/kg): None | Overt Toxicity: Other (ventricular arrhythmias [4]; dog, in vivo, po, 100 mg/kg): None | Overt Toxicity: Tremors (ventricular arrhythmias [4]; dog, in vivo, po, 100 mg/kg): None | Overt Toxicity: Convulsions, Onset (ventricular arrhythmias [4]; dog, in vivo, po, 150 mg/kg): None | Overt Toxicity: Nystagmus (ventricular arrhythmias [4]; dog, in vivo, po, 150 mg/kg): None | Overt Toxicity: Other (ventricular arrhythmias [4]; dog, in vivo, po, 150 mg/kg): None | Overt Toxicity: Tremors (ventricular arrhythmias [4]; dog, in vivo, po, 150 mg/kg): None | Overt Toxicity: Convulsions, Duration (ventricular arrhythmias [4]; dog, in vivo, po, 200 mg/kg): > 3 min | Overt Toxicity: Nystagmus (ventricular arrhythmias [4]; dog, in vivo, po, 200 mg/kg): None | Overt Toxicity: Other (ventricular arrhythmias [4]; dog, in vivo, po, 200 mg/kg): None | Overt Toxicity: Convulsions, Duration (ventricular arrhythmias [4]; dog, in vivo, po, 300 mg/kg): 17 min | Overt Toxicity: Convulsions, Onset (ventricular arrhythmias [4]; dog, in vivo, po, 300 mg/kg): None | Overt Toxicity: Emesis (ventricular arrhythmias [4]; dog, in vivo, po, 300 mg/kg): None | Overt Toxicity: Nystagmus (ventricular arrhythmias [4]; dog, in vivo, po, 300 mg/kg): None | Overt Toxicity: Other (ventricular arrhythmias [4]; dog, in vivo, po, 300 mg/kg): None | Overt Toxicity: Tremors (ventricular arrhythmias [4]; dog, in vivo, po, 300 mg/kg): None | suppression of the ventricular arrhythmias (ventricular arrhythmias [4]; oral doses, dogs): distinct suppression of the ventricular arrhythmias | Partial Clearing, Onset (ventricular arrhythmias [4]; oral, cumulative dose 50 mg/kg as HCl, 50-95% reduction of abnormal ventricular beats): None | Complete Clearing, Duration (ventricular arrhythmias [4]; oral, cumulative dose 50 mg/kg as HCl, *** followed by off and on bursts): 195 min | Complete Clearing, Onset (ventricular arrhythmias [4]; [8]): 120 min | Complete Clearing, Duration (ventricular arrhythmias [4]; [8]): 45 min | Complete Clearing, Duration (ventricular arrhythmias [4]; oral, cumulative dose 200 mg/kg as HCl, *** followed by off and on bursts): 30 min | Complete Clearing, Onset (ventricular arrhythmias [4]; [9]): 30 min | Complete Clearing, Duration (ventricular arrhythmias [4]; [9]): > 180 min | Proportion of mice having ataxia just before CHCl3 challenge (mice [5]; dose LD0.1, 20 min): 10/10 | Proportion of mice having ataxia just before CHCl3 challenge (mice [5]; dose LD0.1, 40 min): 10/10 | Proportion of mice having ataxia just before CHCl3 challenge (mice [5]; dose LD0.1, 80 min): 8/10 | Proportion of mice having ataxia just before CHCl3 challenge (mice [5]; dose LD0.1, 160 min): 5/10 | 24 Hr. Mortality LD0.1 (mice [6]): 382 mg/kg | maximum oral dosage providing antiarrhythmic effects (cardiac arrhythmias): about 380 mg/kg | Proportion of mice protected against fibrillation at LD0.1 (ventricular fibrillation; dose LD0.1, drug given 20 min before CHCl3 challenge): 9/10 | Proportion of mice protected against fibrillation at LD0.1 (ventricular fibrillation; dose LD0.1, drug given 40 min before CHCl3 challenge): 9/10 | Proportion of mice protected against fibrillation at LD0.1 (ventricular fibrillation; dose LD0.1, drug given 80 min before CHCl3 challenge): 10/10 | Proportion of mice protected against fibrillation at LD0.1 (ventricular fibrillation; dose LD0.1, drug given 160 min before CHCl3 challenge): 9/10 | LD50 at 24 h [7]: 529 mg/kg
